From PMC12677607, “Identification of a Pair of Linear or Cyclic Naturally Inspired Bifunctional Lipopeptide Antibiotics That Overcome Antimicrobial Resistance” (Advanced Science, 2025)
Values after ≈ are worked out from the molar mass of the structure shown. Each block holds one compound with its values, some of them ahead of it. Numbered stars: 1 amine (or outer) side, 2 acyl side, 3 side chain; on linkers, the order of the positions; unused ones are H or OH. Bridge positions count the residues as written; N and C are the ends. Square brackets hold non-standard residues; d marks the D form. Peptide text beside a SMILES is read from it. * marks the point of attachment. Octanoyl(3R-OH) = CCCCC[C@@H](O)CC(=O)*; X3 = CCCCC[C@H](CC(=O)[*:1])O[*:2]; Dab = NCC[C@H](N)C(=O)O; Dap = NC[C@H](N)C(=O)O

Assays:
[1] = test system: Acinetobacter baumannii 1104008; assay: microbe, parasite or virus in culture; format: cell-based; conditions: for MIC (μg/mL) A. baumannii 1104008: 1104008, 16 h
Description: (§1) All MIC assays were performed two independent times (n = 2) in 96‐well plates using a broth micro‐dilution method. The lowest concentration of that inhibited visible microbial growth was recorded as the MIC value.
(§2) For most of bacterial strains, overnight cultures were diluted 5000‐fold in LB broth. For E. faecium and S. aureus, overnight cultures were diluted 1000‐ and 10000‐fold in LB broth, respectively. 100 µL of diluted cells was mixed with 100 µL of LB broth containing each peptide ranging from 64 to 0.125 µg mL^−1 at 2‐fold serial dilutions.

[2] = test system: Klebsiella pneumoniae CRKP 5452; assay: microbe, parasite or virus in culture; format: cell-based; conditions: for MIC (μg/mL) K. pneumoniae CRKP 5452: CRKP 5452, 16 h
Description: as §1, §2

[3] = test system: Staphylococcus aureus USA300; assay: microbe, parasite or virus in culture; format: cell-based; conditions: for MIC (μg/mL) S. aureus USA300: USA300, 16 h
Description: as §1, §2

[4] = test system: Streptococcus pyogenes ATCC 19615; assay: microbe, parasite or virus in culture; format: cell-based; conditions: for MIC (μg/mL) S. pyogenes ATCC 19615: ATCC 19615, 16 h
Description: as §1, §2

[5] = test system: Candida albicans ATCC 10231; assay: MIC assay (YPD broth); format: cell-based; conditions: for MIC (μg/mL) C. albicans ATCC 10231: ATCC 10231, 16 h
Description: as §1
(§3) For fungal strains, overnight cultures were diluted 2000‐fold in YPD broth. 100 µL of diluted cells was mixed with 100 µL of YPD broth containing each peptide ranging from […] 64 to 0.125 µg mL^−1 at 2‐fold serial dilutions.

[6] = test system: HeLa cells; assay: Cytotoxicity assay (CCK-8); format: cell-based, human; conditions: 48 h
Description: The cytotoxicity of each synAQU peptide was assessed using a cell counting kit‐8 (CCK‐8) assay. HeLa cells were first seeded in a 96‐well flat‐bottom microtiter plate with a density of ∼5000 cells per well and incubated in the DMEM medium supplemented with 10% FBS at 37 °C with 5% CO2 for 24 h. […] All cytotoxicity experiments were done in triplicate (n = 3) and repeated two independent times (n = 2).

[7] = test system: Shigella Castellani LXX; assay: MIC assay (broth micro-dilution); format: cell-based; conditions: Table S11; LB broth, 37 °C, 16 h, n = 2
Description: as §1, §2

[8] = test system: Acinetobacter baumannii ATCC 17978; assay: microbe, parasite or virus in culture; format: cell-based; conditions: ATCC 17978, 16 h
Description: as §1, §2

[9] = test system: Acinetobacter baumannii ATCC 19606; assay: microbe, parasite or virus in culture; format: cell-based; conditions: ATCC 19606, 16 h
Description: as §1, §2

[10] = test system: Acinetobacter baumannii P53; assay: microbe, parasite or virus in culture; format: cell-based; conditions: Table S11; LB broth, 37 °C, 16 h, n = 2
Description: as §1, §2

[11] = test system: Enterococcus faecalis 26; assay: microbe, parasite or virus in culture; format: cell-based; conditions: 26, 16 h
Description: as §1, §2

[12] = test system: Enterococcus faecalis 28; assay: microbe, parasite or virus in culture; format: cell-based; conditions: 28, 16 h
Description: as §1, §2

[13] = test system: Enterococcus faecalis ATCC 29212; assay: microbe, parasite or virus in culture; format: cell-based; conditions: ATCC 29212, 16 h
Description: as §1, §2

[14] = test system: Enterococcus faecium 35682; assay: microbe, parasite or virus in culture; format: cell-based; conditions: Table S11; LB broth, 37 °C, 16 h, n = 2
Description: as §1, §2

[15] = test system: Klebsiella pneumoniae ATCC 13883; assay: microbe, parasite or virus in culture; format: cell-based; conditions: ATCC 13883, 16 h
Description: as §1, §2

[16] = test system: Klebsiella pneumoniae CRKP HS11286; assay: microbe, parasite or virus in culture; format: cell-based; conditions: CRKP HS11286, 16 h
Description: as §1, §2

[17] = test system: Klebsiella pneumoniae NCTC 5056; assay: microbe, parasite or virus in culture; format: cell-based; conditions: NCTC 5056, 16 h
Description: as §1, §2

[18] = test system: Pseudomonas aeruginosa ATCC 9027; assay: microbe, parasite or virus in culture; format: cell-based; conditions: ATCC 9027, 16 h
Description: as §1, §2

[19] = test system: Pseudomonas aeruginosa PAO1; assay: microbe, parasite or virus in culture; format: cell-based; conditions: PAO1, 16 h
Description: as §1, §2

[20] = test system: Salmonella enterica ATCC 14028; assay: microbe, parasite or virus in culture; format: cell-based; conditions: ATCC 14028, 16 h
Description: as §1, §2

[21] = test system: Salmonella typhimurium LXX; assay: microbe, parasite or virus in culture; format: cell-based; conditions: murium LXX, 16 h
Description: as §1, §2

[22] = test system: Staphylococcus aureus ATCC 25923; assay: microbe, parasite or virus in culture; format: cell-based; conditions: ATCC 25923, 16 h
Description: as §1, §2

[23] = test system: Staphylococcus aureus ATCC 6538; assay: microbe, parasite or virus in culture; format: cell-based; conditions: ATCC 6538, 16 h
Description: as §1, §2

[24] = test system: Staphylococcus aureus Newman; assay: microbe, parasite or virus in culture; format: cell-based; conditions: Newman, 16 h
Description: as §1, §2

[25] = test system: Streptococcus mutans ATCC 25175; assay: microbe, parasite or virus in culture; format: cell-based; conditions: ATCC 25175, 16 h
Description: as §1, §2

[26] = test system: Vibrio alginolyticus XSBZ14; assay: microbe, parasite or virus in culture; format: cell-based; conditions: 16 h
Description: as §1, §2

[27] = test system: Candida albicans ATCC 64550; format: cell-based; conditions: ATCC 64550, 16 h
Description: as §1, §3

[28] = Table S11, LB broth, 37 °C, 16 h, n = 2

MIC (μg/mL) A. baumannii 1104008 [1]: > 64 µg/mL | MIC (μg/mL) K. pneumoniae CRKP 5452 [2]: > 64 µg/mL | MIC (μg/mL) S. aureus USA300 [3]: > 64 µg/mL | MIC (μg/mL) S. pyogenes ATCC 19615 [4]: > 64 µg/mL | MIC (μg/mL) C. albicans ATCC 10231 [5]: > 64 µg/mL
SMILES: CCCCC[C@@H](O)CC(=O)N[C@@H](CN)C(=O)N[C@@H](Cc1ccccc1)C(=O)N[C@H]1CCNC(=O)[C@H](CC(=O)O)NC(=O)[C@H](C(C)C)NC(=O)[C@@H](CC(C)C)NC(=O)[C@H](CN)NC(=O)[C@@H](Cc2ccccc2)NC(=O)[C@H]([C@@H](C)O)NC1=O [synAQU3-C3] ({Octanoyl(3R-OH)}-[Dap]F[Dab]T[dF][Dap][dL]VD; lactam 3-C (inferred))
MIC (μg/mL) Hela [6]: > 64 µg/mL

MIC (μg/mL) A. baumannii 1104008 [1]: > 64 µg/mL | MIC (μg/mL) K. pneumoniae CRKP 5452 [2]: > 64 µg/mL | MIC (μg/mL) S. aureus USA300 [3]: > 64 µg/mL | MIC (μg/mL) S. pyogenes ATCC 19615 [4]: > 64 µg/mL | MIC (μg/mL) C. albicans ATCC 10231 [5]: > 64 µg/mL
SMILES: CCCCC[C@@H](O)CC(=O)N[C@@H](CN)C(=O)N[C@@H](Cc1ccccc1)C(=O)N[C@@H](CCN)C(=O)N[C@@H]1C(=O)N[C@H](Cc2ccccc2)C(=O)N[C@@H](CN)C(=O)N[C@H](CC(C)C)C(=O)N[C@@H](C(C)C)C(=O)N[C@@H](CC(=O)O)C(=O)O[C@@H]1C [synAQU3-C4] ({Octanoyl(3R-OH)}-[Dap]F[Dab]T[dF][Dap][dL]VD; ester 4-C (inferred))
MIC (μg/mL) Hela [6]: > 64 µg/mL

MIC (μg/mL) A. baumannii 1104008 [1]: > 64 µg/mL | MIC (μg/mL) K. pneumoniae CRKP 5452 [2]: > 64 µg/mL | MIC (μg/mL) S. aureus USA300 [3]: > 64 µg/mL | MIC (μg/mL) S. pyogenes ATCC 19615 [4]: > 64 µg/mL | MIC (μg/mL) C. albicans ATCC 10231 [5]: > 64 µg/mL
SMILES: CCCCC[C@@H](O)CC(=O)N[C@@H](CN)C(=O)N[C@@H](Cc1ccccc1)C(=O)N[C@@H](CCN)C(=O)N[C@H](C(=O)N[C@H](Cc1ccccc1)C(=O)N[C@@H](CN)C(=O)N[C@H](CC(C)C)C(=O)N[C@H](C(=O)N[C@@H](CC(=O)O)C(=O)O)C(C)C)[C@@H](C)O [synAQU3-L] ({Octanoyl(3R-OH)}-[Dap]F[Dab]T[dF][Dap][dL]VD-OH)
MIC (μg/mL) Hela [6]: > 64 µg/mL

SMILES: CCCCC[C@@H]1CC(=O)N[C@@H](CN)C(=O)N[C@@H](Cc2ccccc2)C(=O)N[C@@H](CCN)C(=O)N[C@@H]([C@@H](C)O)C(=O)N[C@H](Cc2ccccc2)C(=O)N[C@@H](CN)C(=O)N[C@H](CC(C)C)C(=O)N[C@@H](C(C)C)C(=O)N[C@@H](CC(=O)O)C(=O)O1 [synAQU3-cFA] ([Dap]F[Dab]T[dF][Dap][dL]VD; linker N-C via X3)
MIC Shigella Castellani LXX [7]: 64 µg/mL (≈ 56.3 µM) | MIC Acinetobacter baumannii 1104008 [1, 28]: > 64 µg/mL | MIC Acinetobacter baumannii ATCC 17978 [8]: 64 µg/mL (≈ 56.3 µM) | MIC Acinetobacter baumannii ATCC 19606 [9]: > 64 µg/mL | MIC Acinetobacter baumannii P53 [10]: > 64 µg/mL | MIC Enterococcus faecalis 26 [11]: 16 µg/mL (≈ 14.1 µM) | MIC Enterococcus faecalis 28 [12]: > 64 µg/mL | MIC Enterococcus faecalis ATCC 29212 [13]: > 64 µg/mL | MIC Enterococcus faecium 35682 [14]: 32 µg/mL (≈ 28.1 µM) | MIC Klebsiella pneumoniae ATCC 13883 [15]: > 64 µg/mL | MIC Klebsiella pneumoniae CRKP 5452 [2, 28]: > 64 µg/mL | MIC Klebsiella pneumoniae CRKP HS11286 [16]: > 64 µg/mL | MIC Klebsiella pneumoniae NCTC 5056 [17]: > 64 µg/mL | MIC Pseudomonas aeruginosa ATCC 9027 [18]: 32 µg/mL (≈ 28.1 µM) | MIC Pseudomonas aeruginosa PAO1 [19]: 64 µg/mL (≈ 56.3 µM) | MIC Salmonella enterica ATCC 14028 [20]: > 64 µg/mL | MIC Salmonella typhimurium LXX [21]: 64 µg/mL (≈ 56.3 µM) | MIC Staphylococcus aureus ATCC 25923 [22]: > 64 µg/mL | MIC Staphylococcus aureus ATCC 6538 [23]: > 64 µg/mL | MIC Staphylococcus aureus Newman [24]: > 64 µg/mL | MIC Staphylococcus aureus USA300 [3, 28]: > 64 µg/mL | MIC Streptococcus mutans ATCC 25175 [25]: 32 µg/mL (≈ 28.1 µM) | MIC Streptococcus pyogenes ATCC 19615 [4, 28]: 8 µg/mL (≈ 7.03 µM) | MIC Vibrio alginolyticus XSBZ14 [26]: > 64 µg/mL | MIC Candida albicans ATCC 10231 ([5]; Table S11, YPD broth, 30 °C, 16 h, n = 2): 32 µg/mL (≈ 28.1 µM) | MIC Candida albicans ATCC 64550 [27]: 32 µg/mL (≈ 28.1 µM)
